# Test results as given in patent EP0150227A1, “Dipeptide derivatives and their use in determining the activity of carboxypeptidase A” (FUJIREBIO KABUSHIKI KAISHA also trading as FUJIREBIO INC., priority 1983, dated 1985).
# Non-standard residues stand in square brackets, D forms with d. Residues, ends and D or L forms follow the SMILES beside them. 4Abz = Nc1ccc(C(=O)O)cc1
# Key:
# Type in all cases: biochemical
# [1] = system: carboxypeptidase A; test: Spectrophotometric CP-A activity determination (hippuricase, benzoate hydroxylase, decrease of NADPH/NADH absorbance at 340 nm)
# Method: […] of serum (the same as used in Example 6) was added to 0.5 ml of a test reagent solution (pH 8.0) containing 10 mM p-hydroxybenzoylglycyl-L-tyrosine, 3000 U/1 hippuricase, 0.2 mM NADPH, 10000 U/1 p-hydroxybenzoate hydroxylase and 100 mM boric acid.
# The decrease in the absorbance by the solution was measured at 340 nm of light at a temperature of 37°C during the course of the reaction. There was used for the measurement a reaction rate analyser in which the reaction time was five minutes. The activity value (mU/ml) of CP-A was automatically printed out in the analyser.
# The calculation of activity was performed according to the following formula: [formula] wherein ε = 6.22 x 10^3 (Molecular extinction coefficient of NADPH)
# The activity of CP-A was determined by repeating the procedure shown in Example 8 except that o-hydroxybenzoyl-L-isoleucyl-L-phenylalanine was used instead of p-hydroxybenzoylglycyl-L-tyrosine, salicylate hydroxylase was used instead of p-hydroxybenzoate hydroxylase, and nicotinamide adenine dinucleotide in reduced form (NADH) was used instead of NADPH.
# The activity of CP-A was determined by repeating the procedure shown in Example 8 with a mixture prepared by adding 0.05 ml of serum (the same as used in Example 6) to 0.5 ml of a test reagent solution (pH 8.0) containing 30 mM p-methoxybenzoyl-L-leucyl-L-phenylalanine, 1000 U/1 hippuricase, 0.2 mM NADH, 20000 U/1 p-methoxybenzoate hydroxylase and 100 mM phosphoric acid.
# [2] = system: carboxypeptidase A; test: Colourimetric CP-A activity determination (hippuricase, NaNO2 diazotisation, azo dye at 505 nm); conditions: same serum as Example 6; 20 mM substrate, pH 8.0, 37°C, 20 minutes; repeated 20 times, CV 5.3%
# Method: 0.05 ml of serum (the same as used in Example 6) containing CP-A was added to 0.5 ml of a test reagent solution (pH 8.0) containing 20 mM p-aminobenzoyl-L-alanyl-L-tyrosine, 0.5 M NaCl, 3000 U/1 hippuricase and 100 mM boric acid. After this mixture had been allowed to stand at 37°C for 20 minutes, 0.5 ml of a solution containing 2 mM NaN02 and 1 mM NaOH was added to the mixture, and the mixture was allowed to stand at room temperature for 10 minutes. 0.5 ml of a reagent solution containing 1 mM potassium l-naphthol-2-sulphate, 50 mM boric acid and 200 mM NaOH was added to the mixture. The absorbance by the solution was measured at 505 nm of light. This absorbance is referred to as Absorbance A.
# Absorbance B was measured by repeating the procedure as shown above but using 0.05 ml of an aqueous solution containing 10 uM p-aminobenzoic acid instead of 0.05 ml of serum, and Absorbance C was measured by repeating the procedure as shown above but using 0.05 ml of distilled water instead of 0.05 ml of serum.
# The activity value (mU/ml) of CP-A can be calculated by the following equation: [formula]
# [3] = system: carboxypeptidase A; test: Colourimetric CP-A activity determination (hippuricase, 4-aminoantipyrine, periodate, quinonimine dye at 505 nm); conditions: serum containing carboxypeptidase A; 10 mM substrate, pH 7.8, 37°C, 20 minutes; test repeated 20 times, CV 3.4%
# Method: 0.1 ml of serum containing carboxypeptidase A was added to 0.5 ml of a test reagent solution of pH 7.8 containing 10 mM p-hydroxybenzoyl-L-alanyl-L-phenylalanine, 0.1 M sodium chloride, 3000 U/1 hippuricase, 2.5 mM 4-aminoantipyrine and 100 mM N-2-hydroxyethyl piperazine-N-2-ethane sulphonic acid. The mixture was incubated at 37°C for 20 minutes. 1.5 ml of a reaction termination solution containing 6.5 mM sodium periodate was added to this reaction mixture. The mixture obtained was incubated at 37°C for five minutes, so that quinonimine dye was formed. The absorbance of the reaction mixture was measured at a light wavelength of 505 nm. This absorbance is referred to as Absorbance A.
# Separately, for a blank (comparison) test, in the procedure as mentioned above, 1.5 ml of a reaction termination solution containing 6.5 mM sodium […] was added to the test reagent solution before 0.1 ml of serum containing carboxypeptidase A was added to the test reagent solution. The absorbance of the blank test reagent was then measured in the same manner as described above, at a light wavelength of 505 nm. This absorbance is referred to as Absorbance B.
# The activity value (mU/ml) of carboxypeptidase A can be calculated by the following equation: [formula] where ε = 12000 (Molecular extinction coefficient or guinon- imine dye)
compound,measurement,setting,value
CC[C@H](C)[C@H](NC(=O)c1ccccc1O)C(=O)N[C@@H](Cc1ccccc1)C(=O)O [o-hydroxybenzoyl-L-isoleucyl-L-phenylalanine],Activity value,"[1]; procedure of Example 8 with salicylate hydroxylase and NADH, CV 7.0%",1.1 mU/ml
C[C@H](NC(=O)c1ccc(N)cc1)C(=O)N[C@@H](Cc1ccc(O)cc1)C(=O)O [p-aminobenzoyl-L-alanyl-L-tyrosine] (H-[4Abz]-Ala-Tyr-OH),Activity value,[2],1.7 mU/ml
C[C@H](NC(=O)c1ccc(O)cc1)C(=O)N[C@@H](Cc1ccccc1)C(=O)O [p-hydroxybenzoyl-L-alanyl-L-phenylalanine],Activity value,[3],5.1 mU/ml
O=C(CNC(=O)c1ccc(O)cc1)N[C@@H](Cc1ccc(O)cc1)C(=O)O [p-hydroxybenzoylglycyl-L-tyrosine],Activity value,"[1]; same serum as Example 6, 10 mM substrate, pH 8.0, 37°C, 0.2 mM NADPH, p-hydroxybenzoate hydroxylase, repeated 20 times, CV 5.2%",6.2 mU/ml
COc1ccc(C(=O)N[C@@H](CC(C)C)C(=O)N[C@@H](Cc2ccccc2)C(=O)O)cc1 [p-methoxybenzoyl-L-leucyl-L-phenylalanine],Activity value,"[1]; same serum as Example 6, 30 mM substrate, pH 8.0, 0.2 mM NADH, p-methoxybenzoate hydroxylase, 100 mM phosphoric acid, CV 4.7%",2.5 mU/ml
